Assay results: paper PMC5510653 (ACS chemical neuroscience, 2016)

How the values were obtained:
TH immunolabeling = assay: Post-mortem TH immunoperoxidase staining of striatum; format: in vivo, Rhesus monkeys; conditions: 7 MPTP-treated animals vs mean of 3 non-treated monkeys, mean ± SEM
[1] = system: MPTP-treated parkinsonian monkeys; assay: Motor behavior in MPTP-treated parkinsonian monkeys; format: in vivo, Rhesus monkeys
slow-wave sleep = conditions: mice ref 39, 40; cited from earlier work
[2] = system: electrical cardiac activities; assay: Effects of ML218 on cardiac function; format: in vivo, Rhesus monkeys; conditions: ketamine sedation
[3] = system: MPTP-treated parkinsonian monkey; assay: ECoG recordings and scoring of state of arousal and movements; format: in vivo, Rhesus monkey; conditions: ML218 3 mg/kg s.c., one monkey
[4] = system: MDCK-MDR1 (MDCK-Pgp) cells
[5] = rhesus monkey
[6] = rhesus monkey, in vivo, sc, 10 mg/kg
[7] = system: haloperidol-induced catalepsy; conditions: haloperidol-induced catalepsy model in rats ref 38; cited from earlier work

Compound: CN1CC=C(c2ccccc2)CC1 [MPTP]
- reduction of TH immunolabeling in the caudate (TH immunolabeling): 89 ± 3%
- reduction of TH immunolabeling in the post-commissural putamen (TH immunolabeling): 87 ± 3%

Compound: N[C@@H](Cc1ccc(O)c(O)c1)C(=O)O [L-DOPA, reference compound]
- antiparkinsonian effects (number of movements, activity counts) ([1]; L-DOPA 5, 10, 15, 20 mg/kg i.m. in combination with benserazide): strong, dose-dependent antiparkinsonian effects

Compound: C[C@@H](NC(=O)Cc1ccc(C2CC2)cc1)c1ccc(OCC(F)(F)F)cn1 [TTA-A2]
- effect on slow-wave sleep (slow-wave sleep): promotes slow-wave sleep

Compound: CC(C)(C)CCN1C[C@@H]2C(CNC(=O)c3cc(Cl)cc(Cl)c3)[C@@H]2C1 (stereo partly shown) [ML218]
- chronotropic effect (R-R interval) ([2]; 30 mg/kg s.c., ECG two hours after injection, 3 animals): minor negative chronotropic effects
- effects on the other ECG parameters studied (PR, RT intervals) ([2]; 10 and 30 mg/kg s.c.): no consistent effects
- effect of adding ML218 on L-DOPA-mediated responses ([1]; ML218 3 mg/kg s.c. 60 min before L-DOPA 10 mg/kg i.m. plus 2.5 mg/kg benserazide): did not alter the L-DOPA-mediated responses
- activity counts compared to baseline ([1]; ML218 10 mg/kg s.c., p=0.002): reduced
- number of movements compared to baseline ([1]; ML218 10 mg/kg s.c., p=0.006): reduced
- antiparkinsonian effects (number of movements, activity counts) ([1]; ML218 1, 10 and 30 mg/kg s.c., observed from 1 hour after injection): no antiparkinsonian effects
- mean number of movements per 5 minute of observation ([3]; 2 hours of observation, vehicle 51.07 ± 6.42, p=0.016): 25.39 ± 4.52
- sleep ratio ([3]; within 120 minutes, vehicle 0.09 ± 0.06, p=0.008): 0.54 ± 0.06
- Papp AB [4]: 2.6e^− 6 cm/sec
- Fu (fraction of unbound compound in plasma) [5]: 0.09
- CSF Tmax [6]: 1 to 2 h
- anti-cataleptic properties [7]: anti-cataleptic properties
